{"source": "patent US20050197350A1", "about": "“Novel quinoline, tetrahydroquinazoline, and pyrimidine derivatives and methods of treatment related to the use thereof” (TAISHO PHARMACEUTICAL CO., LTD., priority 2003, published 2005)", "data": [{"tested_on": "MCH receptors", "assay": "MCH receptor activity class (method not given)", "conditions": "class by percent of control at 10^-7 M or IC50", "values": [{"smiles": "Cc1c(C(=O)N[C@H]2CC[C@@H](Nc3cc(N(C)C)c4ccccc4n3)CC2)cc(-c2ccccc2)n1CCCN1CCOCC1", "note": "[compound 724]", "class": "3 (Class 3 The value of percent of control at 10^−7 M was more than 60% or the value of IC50 was more than 200 nM.)"}, {"smiles": "CN(C)c1cc(N[C@H]2CC[C@@H](NC(=O)CCCc3ccc([N+](=O)[O-])cc3)CC2)nc2ccccc12", "note": "[compound 725]", "class": "3 (Class 3 The value of percent of control at 10^−7 M was more than 60% or the value of IC50 was more than 200 nM.)"}, {"smiles": "CN(C)c1cc(N[C@H]2CC[C@@H](NC(=O)/C=C/c3ccccc3[N+](=O)[O-])CC2)nc2ccccc12", "note": "[compound 726]", "class": "3 (Class 3 The value of percent of control at 10^−7 M was more than 60% or the value of IC50 was more than 200 nM.)"}, {"smiles": "CN(C)c1cc(N[C@H]2CC[C@@H](NC(=O)Cc3cccc(Oc4ccccc4)c3)CC2)nc2ccccc12", "note": "[compound 727]", "class": "3 (Class 3 The value of percent of control at 10^−7 M was more than 60% or the value of IC50 was more than 200 nM.)"}, {"smiles": "CN(C)c1cc(N[C@H]2CC[C@@H](NC(=O)Cc3ccc(Oc4ccccc4)cc3)CC2)nc2ccccc12", "note": "[compound 728]", "class": "3 (Class 3 The value of percent of control at 10^−7 M was more than 60% or the value of IC50 was more than 200 nM.)"}, {"smiles": "CN(C)c1cc(N[C@H]2CC[C@@H](NC(=O)Cc3c(-c4ccccc4)[nH]c4ccccc34)CC2)nc2ccccc12", "note": "[compound 729, N-(cis-4-{[4-(dimethylamino)quinolin-2-yl]amino}cyclohexyl)-2-(2-phenyl-1H-indol-3-yl)acetamide]", "class": "2 (Class 2: The value of percent of control at 10^−7 M was from 40% to 60% or the value of IC′50 was from 50 nM to 200 nM.)"}, {"smiles": "CN(C)c1cc(N[C@H]2CC[C@@H](NC(=O)c3cccc(Oc4ccccc4)c3)CC2)nc2ccccc12", "note": "[compound 731]", "class": "3 (Class 3 The value of percent of control at 10^−7 M was more than 60% or the value of IC50 was more than 200 nM.)"}, {"smiles": "CN(C)c1cc(N[C@H]2CC[C@@H](NC(=O)c3ccccc3CCc3ccccc3)CC2)nc2ccccc12", "note": "[compound 732]", "class": "3 (Class 3 The value of percent of control at 10^−7 M was more than 60% or the value of IC50 was more than 200 nM.)"}, {"smiles": "CN(C)c1cc(N[C@H]2CC[C@@H](NC(=O)c3cccc(C(=O)c4ccccc4)c3)CC2)nc2ccccc12", "note": "[compound 733]", "class": "3 (Class 3 The value of percent of control at 10^−7 M was more than 60% or the value of IC50 was more than 200 nM.)"}, {"smiles": "CCSC(C(=O)N[C@H]1CC[C@@H](Nc2cc(N(C)C)c3ccccc3n2)CC1)(c1ccccc1)c1ccccc1", "note": "[compound 734]", "class": "3 (Class 3 The value of percent of control at 10^−7 M was more than 60% or the value of IC50 was more than 200 nM.)"}, {"smiles": "CN(C)c1cc(N[C@H]2CC[C@@H](NC(=O)c3ccccc3Sc3ccccc3C#N)CC2)nc2ccccc12", "note": "[compound 735]", "class": "3 (Class 3 The value of percent of control at 10^−7 M was more than 60% or the value of IC50 was more than 200 nM.)"}, {"smiles": "COc1cc(CC(=O)N[C@H]2CC[C@@H](Nc3cc(N(C)C)c4ccccc4n3)CC2)ccc1OCc1ccccc1", "note": "[compound 736]", "class": "3 (Class 3 The value of percent of control at 10^−7 M was more than 60% or the value of IC50 was more than 200 nM.)"}, {"smiles": "C[C@@H](NC(=O)c1ccccc1C(=O)N[C@H]1CC[C@@H](Nc2cc(N(C)C)c3ccccc3n2)CC1)c1cccc2ccccc12", "note": "[compound 737]", "class": "3 (Class 3 The value of percent of control at 10^−7 M was more than 60% or the value of IC50 was more than 200 nM.)"}, {"smiles": "C[C@H](C(=O)N[C@H]1CC[C@@H](Nc2cc(N(C)C)c3ccccc3n2)CC1)c1cccc(C(=O)c2ccccc2)c1", "note": "[compound 738]", "class": "3 (Class 3 The value of percent of control at 10^−7 M was more than 60% or the value of IC50 was more than 200 nM.)"}, {"smiles": "C[C@@H](c1ccccc1)N(C(=O)c1ccccc1C(=O)N[C@H]1CC[C@@H](Nc2cc(N(C)C)c3ccccc3n2)CC1)[C@@H](C)c1ccccc1", "note": "[compound 739]", "class": "3 (Class 3 The value of percent of control at 10^−7 M was more than 60% or the value of IC50 was more than 200 nM.)"}, {"smiles": "C[C@H](C(=O)N[C@H]1CC[C@@H](Nc2cc(N(C)C)c3ccccc3n2)CC1)c1ccc(-c2ccccc2)c(F)c1", "note": "[compound 740]", "class": "3 (Class 3 The value of percent of control at 10^−7 M was more than 60% or the value of IC50 was more than 200 nM.)"}, {"smiles": "CN(C)c1cc(N[C@H]2CC[C@@H](NC(=O)CCC(=O)c3cccs3)CC2)nc2ccccc12", "note": "[compound 745]", "class": "3 (Class 3 The value of percent of control at 10^−7 M was more than 60% or the value of IC50 was more than 200 nM.)"}, {"smiles": "CN(C)c1cc(N[C@H]2CC[C@@H](NC(=O)CCCc3cccs3)CC2)nc2ccccc12", "note": "[compound 746]", "class": "3 (Class 3 The value of percent of control at 10^−7 M was more than 60% or the value of IC50 was more than 200 nM.)"}, {"smiles": "CN(C)c1cc(N[C@H]2CC[C@@H](NC(=O)COc3c(Cl)cc(Cl)cc3Cl)CC2)nc2ccccc12", "note": "[compound 747]", "class": "2 (Class 2: The value of percent of control at 10^−7 M was from 40% to 60% or the value of IC′50 was from 50 nM to 200 nM.)"}, {"smiles": "CN(C)c1cc(N[C@H]2CC[C@@H](NC(=O)Cc3c[nH]c4ccc(OCc5ccccc5)cc34)CC2)nc2ccccc12", "note": "[compound 748]", "class": "3 (Class 3 The value of percent of control at 10^−7 M was more than 60% or the value of IC50 was more than 200 nM.)"}, {"smiles": "CN(C)c1cc(N[C@H]2CC[C@@H](NC(=O)c3ccccc3C(=O)c3cccc4ccccc34)CC2)nc2ccccc12", "note": "[compound 749]", "class": "3 (Class 3 The value of percent of control at 10^−7 M was more than 60% or the value of IC50 was more than 200 nM.)"}, {"smiles": "COc1ccc(C(=O)N[C@H]2CC[C@@H](Nc3cc(N(C)C)c4ccccc4n3)CC2)cc1OCc1ccccc1", "note": "[compound 750]", "class": "2 (Class 2: The value of percent of control at 10^−7 M was from 40% to 60% or the value of IC′50 was from 50 nM to 200 nM.)"}, {"smiles": "Cc1c(C(=O)N[C@H]2CC[C@@H](Nc3cc(N(C)C)c4ccccc4n3)CC2)cc(-c2ccccc2)n1-c1ccccc1", "note": "[compound 751]", "class": "3 (Class 3 The value of percent of control at 10^−7 M was more than 60% or the value of IC50 was more than 200 nM.)"}, {"smiles": "Cc1c(C(=O)N[C@H]2CC[C@@H](Nc3cc(N(C)C)c4ccccc4n3)CC2)cc(-c2ccccc2)n1CCSCc1c(F)cccc1Cl", "note": "[compound 752]", "class": "3 (Class 3 The value of percent of control at 10^−7 M was more than 60% or the value of IC50 was more than 200 nM.)"}, {"smiles": "CN(C)c1cc(N[C@H]2CC[C@@H](NC(=O)c3c4ccccc4cc4ccccc34)CC2)nc2ccccc12", "note": "[compound 753]", "class": "3 (Class 3 The value of percent of control at 10^−7 M was more than 60% or the value of IC50 was more than 200 nM.)"}, {"smiles": "CN(C)c1cc(N[C@H]2CC[C@@H](NC(=O)c3ccccc3Oc3ccccc3)CC2)nc2ccccc12", "note": "[compound 754, N-(cis-4-{[4-(dimethylamino)quinolin-2-yl]amino}cyclohexyl)-2-phenoxybenzamide]", "class": "2 (Class 2: The value of percent of control at 10^−7 M was from 40% to 60% or the value of IC′50 was from 50 nM to 200 nM.)"}, {"smiles": "CN(C)c1cc(N[C@H]2CC[C@@H](NC(=O)c3ccccc3-c3ccccc3)CC2)nc2ccccc12", "note": "[compound 755]", "class": "3 (Class 3 The value of percent of control at 10^−7 M was more than 60% or the value of IC50 was more than 200 nM.)"}, {"smiles": "CN(C)c1cc(N[C@H]2CC[C@@H](NC(=O)CC(c3ccccc3)c3ccccc3)CC2)nc2ccccc12", "note": "[compound 756]", "class": "3 (Class 3 The value of percent of control at 10^−7 M was more than 60% or the value of IC50 was more than 200 nM.)"}, {"smiles": "CN(C)c1cc(N[C@H]2CC[C@@H](NC(=O)c3cc(-c4ccccc4)nc4ccccc34)CC2)nc2ccccc12", "note": "[compound 757, N-(cis-4-{[4-(dimethylamino)quinolin-2-yl]amino}cyclohexyl)-2-phenylquinoline-4-carboxamide]", "class": "2 (Class 2: The value of percent of control at 10^−7 M was from 40% to 60% or the value of IC′50 was from 50 nM to 200 nM.)"}, {"smiles": "C[C@H](NC(=O)c1ccccc1C(=O)N[C@H]1CC[C@@H](Nc2cc(N(C)C)c3ccccc3n2)CC1)c1ccccc1", "note": "[compound 758]", "class": "3 (Class 3 The value of percent of control at 10^−7 M was more than 60% or the value of IC50 was more than 200 nM.)"}, {"smiles": "Cc1ccc(C(=O)c2ccccc2C(=O)N[C@H]2CC[C@@H](Nc3cc(N(C)C)c4ccccc4n3)CC2)cc1", "note": "[compound 759]", "class": "3 (Class 3 The value of percent of control at 10^−7 M was more than 60% or the value of IC50 was more than 200 nM.)"}, {"smiles": "CN(C)c1cc(N[C@H]2CC[C@@H](NC(=O)c3ccccc3COc3ccccc3)CC2)nc2ccccc12", "note": "[compound 760]", "class": "3 (Class 3 The value of percent of control at 10^−7 M was more than 60% or the value of IC50 was more than 200 nM.)"}, {"smiles": "CN(C)c1cc(N[C@H]2CC[C@@H](NC(=O)Cc3sc(-c4ccccc4)nc3-c3ccc(Cl)cc3)CC2)nc2ccccc12", "note": "[compound 761]", "class": "3 (Class 3 The value of percent of control at 10^−7 M was more than 60% or the value of IC50 was more than 200 nM.)"}, {"smiles": "Cc1ccc(S(=O)(=O)n2ccc(C(=O)N[C@H]3CC[C@@H](Nc4cc(N(C)C)c5ccccc5n4)CC3)c2)cc1", "note": "[compound 762]", "class": "3 (Class 3 The value of percent of control at 10^−7 M was more than 60% or the value of IC50 was more than 200 nM.)"}, {"smiles": "CN(C)c1cc(N[C@H]2CC[C@@H](NC(=O)c3ccc(-c4cccc([N+](=O)[O-])c4)o3)CC2)nc2ccccc12", "note": "[compound 763, N-(cis-4-{[4-(dimethylamino)quinolin-2-yl]amino}cyclohexyl)-5-(3-nitrophenyl)-2-furamide]", "class": "1 (Class 1: The value of percent of control at 10^−7 M was less than 40% or the value of IC50 was less than 50 nM.)"}, {"smiles": "CN(C)c1cc(N[C@H]2CC[C@@H](NC(=O)c3scc(S(C)(=O)=O)c3Cl)CC2)nc2ccccc12", "note": "[compound 764]", "class": "3 (Class 3 The value of percent of control at 10^−7 M was more than 60% or the value of IC50 was more than 200 nM.)"}, {"smiles": "CSc1sc(C(=O)N[C@H]2CC[C@@H](Nc3cc(N(C)C)c4ccccc4n3)CC2)c(Cl)c1S(=O)(=O)C(C)C", "note": "[compound 765]", "class": "3 (Class 3 The value of percent of control at 10^−7 M was more than 60% or the value of IC50 was more than 200 nM.)"}, {"smiles": "CSc1sc(C(=O)N[C@H]2CC[C@@H](Nc3cc(N(C)C)c4ccccc4n3)CC2)c(I)c1S(=O)(=O)C(C)C", "note": "[compound 766]", "class": "3 (Class 3 The value of percent of control at 10^−7 M was more than 60% or the value of IC50 was more than 200 nM.)"}]}]}
